Source: patent publication US20250011318A1 (ARCUS BIOSCIENCES, INC., priority 2023, published 2025)

Legend:
Cbl-b = target: T1, Cbl-b (Homo sapiens, UniProt Q13191); assay: Cbl-b probe displacement HTRF binding assay; settings: 0.4 nM biotinylated Cbl-b, 150 nM BODIPY probe
T1 construct: biotin (biotinylated)
Outline: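 Biotinylated Cbl-b (0.4 nM) preincubated 60 min at RT with compound (20-point 1:2 series, 10 μM top), then 150 nM BODIPY probe for 15 min, then streptavidin-terbium detection. Buffer: 20 mM Hepes, 150 mM NaCl, 0.01% Triton X-100, 0.5 mM TCEP, 0.01% BSA. Loss of HTRF signal gave IC50 via four-parameter fit.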

Jurkat cells = assay: IL-2 secretion assay in CD3/CD28-activated Jurkat cells (AlphaLISA); assay type: cell-based, human; settings: Homo sapiens, CD3/CD28 T Cell Activator, 24 h, IL-2 AlphaLISA
Outline: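 Jurkat cells (50,000/well) preincubated 1 h at 37° C with compound (16-point 1:2 series, final 10 μM to 300 pM) in Opti-MEM, then stimulated with CD3/CD28 activator for 24 h. Supernatant IL-2 read by AlphaLISA; EC50 from 4-parameter logistic fit.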

T1 sequence (Q13191 whole entry, species assumed): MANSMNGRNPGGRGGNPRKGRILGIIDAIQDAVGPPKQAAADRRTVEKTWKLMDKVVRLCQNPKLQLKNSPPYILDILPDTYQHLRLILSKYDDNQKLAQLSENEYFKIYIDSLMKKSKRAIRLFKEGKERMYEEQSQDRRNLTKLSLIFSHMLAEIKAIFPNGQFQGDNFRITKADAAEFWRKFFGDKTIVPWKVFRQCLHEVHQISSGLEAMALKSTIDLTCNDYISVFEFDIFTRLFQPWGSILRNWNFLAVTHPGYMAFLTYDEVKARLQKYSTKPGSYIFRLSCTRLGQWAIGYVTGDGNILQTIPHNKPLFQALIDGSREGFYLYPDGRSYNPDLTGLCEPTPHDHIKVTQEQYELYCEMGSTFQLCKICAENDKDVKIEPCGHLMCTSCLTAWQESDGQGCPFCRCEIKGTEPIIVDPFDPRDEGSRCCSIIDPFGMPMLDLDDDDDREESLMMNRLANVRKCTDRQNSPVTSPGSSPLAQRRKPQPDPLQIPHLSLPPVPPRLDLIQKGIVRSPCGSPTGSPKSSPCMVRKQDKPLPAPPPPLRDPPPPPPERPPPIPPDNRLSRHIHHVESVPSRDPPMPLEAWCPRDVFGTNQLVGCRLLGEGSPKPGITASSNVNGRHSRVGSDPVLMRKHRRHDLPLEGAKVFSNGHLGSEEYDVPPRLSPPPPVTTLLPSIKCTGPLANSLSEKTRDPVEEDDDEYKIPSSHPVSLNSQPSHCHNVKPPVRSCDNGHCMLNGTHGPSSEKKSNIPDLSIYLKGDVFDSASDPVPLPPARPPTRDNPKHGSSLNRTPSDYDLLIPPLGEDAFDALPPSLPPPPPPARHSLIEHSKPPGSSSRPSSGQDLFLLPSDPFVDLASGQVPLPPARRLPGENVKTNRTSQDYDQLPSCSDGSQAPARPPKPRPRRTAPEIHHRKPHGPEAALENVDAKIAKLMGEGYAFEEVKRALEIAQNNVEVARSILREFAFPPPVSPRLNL

Compound: C[C@H]1CCCN(Cc2cc3c(C4CC4)cn(-c4cc(-c5ccc(F)cc5-c5nncn5C)cc(Cl)n4)c(=O)c3[nH]2)C1 [Example 6, 2-{1[(S)-3-Methyl-1-piperidyl]methyl}-6-{6-chloro-4-[4-fluoro-2-(4-methyl-4H-1,2,4-triazol-3-yl)phenyl]-2-pyridyl}-4-cyclopropyl-1,6-dihydro-1,6-diaza-7-indenone]
- IC50 (Cbl-b): < 100 nM
- EC50 (Jurkat cells): < 100 nM

Compound: C[C@@H]1CN(Cc2cc3c(C4CC4)cn(-c4cc(-c5cc(F)c(F)cc5-c5nccn5C)cc(C5CC5)n4)c(=O)c3[nH]2)CCO1 [Example 66, 2-{[(R)-2-methyl-4-morpholinyl]methyl}-4-cyclopropyl-6-{6-cyclopropyl-4-[4,5-difluoro-2-(1-methyl-2-imidazolyl)phenyl]-2-pyridyl}-1,6-dihydro-1,6-diaza-7-indenone]
- IC50 (Cbl-b): < 100 nM
- EC50 (Jurkat cells): 100 to 1000 nM

Compound: C[C@H]1CCCN(Cc2nc3c(C4CC4)cn(-c4cc(-c5ccc(F)cc5-c5nccn5C)cc(C5CC5)n4)c(=O)c3[nH]2)C1 [Example 51, 7-cyclopropyl-5-[6-cyclopropyl-4-[4-fluoro-2-(1-methylimidazol-2-yl)phenyl]pyridin-2-yl]-2-[[(3S)-3-methylpiperidin-1-yl]methyl]-3H-imidazo[4,5-c]pyridin-4-one]
- IC50 (Cbl-b): < 100 nM
- EC50 (Jurkat cells): < 100 nM

Compound: C[C@@H](c1nc2c(C(F)(F)F)cn(-c3cc(-c4ccc(F)cc4-c4nncn4C)cc(C4CC4)n3)c(=O)c2[nH]1)C1CC1 [Example 46, 2-[(1R)-1-cyclopropylethyl]-5-[6-cyclopropyl-4-[4-fluoro-2-(4-methyl-1,2,4-triazol-3-yl)phenyl]pyridin-2-yl]-7-(trifluoromethyl)-3H-imidazo[4,5-c]pyridin-4-one]
- IC50 (Cbl-b): < 100 nM
- EC50 (Jurkat cells): < 100 nM

Compound: Cn1cnnc1-c1cc(F)ccc1-c1cc(C2CC2)nc(-n2cc(C#N)c3c4c([nH]c3c2=O)CCCC4)c1 [Example 144, 2-{6-Cyclopropyl-4-[4-fluoro-2-(4-methyl-4H-1,2,4-triazol-3-yl)phenyl]-2-pyridyl}-1-oxo-2,5,6,7,8,9-hexahydroβ-carboline-4-carbonitrile]
- IC50 (Cbl-b): < 100 nM
- EC50 (Jurkat cells): < 100 nM

Compound: COCCNCc1cc2c(C(F)(F)F)cn(-c3cc(-c4ccc(F)cc4-n4nccc4C(F)(F)F)cc(C4CC4)n3)c(=O)c2[nH]1 [Example 142, 6-[6-cyclopropyl-4-[4-fluoro-2-[5-(trifluoromethyl)pyrazol-1-yl]phenyl]pyridin-2-yl]-2-[(2-methoxyethylamino)methyl]-4-(trifluoromethyl)-1H-pyrrolo[2,3-c]pyridin-7-one]
- IC50 (Cbl-b): < 100 nM
- EC50 (Jurkat cells): 100 to 1000 nM

Compound: Cn1cnnc1-c1cc(C#N)ccc1-c1cc(C2CC2)nc(-n2cc(C3CC3)c3cc(CNC4(C)CCC4)[nH]c3c2=O)c1 [Example 37, 4-(6-cyclopropyl-2-{4-cyclopropyl-2-[(1-methylcyclobutylamino)methyl]-7-oxo-1,6-dihydro-1,6-diaza-6-indenyl}-4-pyridyl)-3-(4-methyl-4H-1,2,4-triazol-3-yl)benzonitrile]
- IC50 (Cbl-b): < 100 nM
- EC50 (Jurkat cells): < 100 nM

Compound: Cn1cnnc1-c1cc(F)ccc1-c1cc(C2CC2)nc(-n2cc(C(F)(F)F)c3nc(CC4CCCCC4)[nH]c3c2=O)c1 [Example 43, 2-(Cyclohexylmethyl)-5-{6-cyclopropyl-4-[4-fluoro-2-(4-methyl-4H-1,2,4-triazol-3-yl)phenyl]-2-pyridyl}-7-(trifluoromethyl)-3,5-dihydro-1,3,5-triaza-4-indenone]
- IC50 (Cbl-b): < 100 nM
- EC50 (Jurkat cells): < 100 nM

Compound: CC1(NCc2cc3c(C4CC4)cn(-c4cc(-c5ccc(F)cc5-n5nccc5C(F)(F)F)cc(C5CC5)n4)c(=O)c3[nH]2)CCC1 [Example 103, 4-cyclopropyl-6-[6-cyclopropyl-4-[4-fluoro-2-[5-(trifluoromethyl)pyrazol-1-yl]phenyl]pyridin-2-yl]-2-[[(1-methylcyclobutyl)amino]methyl]-1H-pyrrolo[2,3-c]pyridin-7-one]
- IC50 (Cbl-b): < 100 nM
- EC50 (Jurkat cells): 100 to 1000 nM

Compound: Cn1ccnc1-c1cc(F)ccc1-c1cc(C2CC2)nc(-n2cc(C#N)c3cc(CNCCCF)[nH]c3c2=O)c1 [Example 86, 6-{6-cyclopropyl-4-[4-fluoro-2-(1-methyl-2-imidazolyl)phenyl]-2-pyridyl}-2-[(3-fluoropropylamino)methyl]-7-oxo-1,6-dihydro-1,6-diaza-4-indenecarbonitrile]
- IC50 (Cbl-b): < 100 nM
- EC50 (Jurkat cells): < 100 nM

Compound: CC(c1cc2c(C3CC3)cn(-c3cc(-c4ccc(C#N)cc4-c4nccn4C)cc(C4CC4)n3)c(=O)c2[nH]1)N1CCC[C@H](C)C1 (mixture of isomers) [Example 100, 4-[2-(2-{1-[(S)-3-methyl-1-piperidyl]ethyl}-4-cyclopropyl-7-oxo-1,6-dihydro-1,6-diaza-6-indenyl)-6-cyclopropyl-4-pyridyl]-3-(1-methyl-2-imidazolyl)benzonitrile]
- IC50 (Cbl-b): < 100 nM
- EC50 (Jurkat cells): < 100 nM

Compound: Cn1cc(C#N)nc1-c1cc(C#N)ccc1-c1cc(C2CC2)nc(-n2cnc3cc(CNC4(C)CCC4)[nH]c3c2=O)c1 [Example 115, 2-[5-cyano-2-[2-cyclopropyl-6-[6-[[(1-methylcyclobutyl)amino]methyl]-4-oxo-5H-pyrrolo[3,2-d]pyrimidin-3-yl]pyridin-4-yl]phenyl]-1-methylimidazole-4-carbonitrile]
- IC50 (Cbl-b): < 100 nM
- EC50 (Jurkat cells): < 100 nM

Compound: C[C@H]1CN(Cc2cc3c(C#N)cn(-c4cc(-c5c(F)cc(F)cc5-c5nccn5C)cc(C5CC5)n4)c(=O)c3[nH]2)CCCO1 [Example 88, 2-{1[(S)-2-methyl-1,4-oxazepan-4-yl]methyl}-6-{6-cyclopropyl-4-[4,6-difluoro-2-(1-methyl-2-imidazolyl)phenyl]-2-pyridyl}-7-oxo-1,6-dihydro-1,6-diaza-4-indenecarbonitrile]
- IC50 (Cbl-b): < 100 nM
- EC50 (Jurkat cells): < 100 nM

Compound: C[C@H]1CCCN(Cc2cc3c(C4CC4)cn(-c4cc(-c5ccc(C#N)cc5-c5nncn5C(F)F)cc(C5CC5)n4)c(=O)c3[nH]2)C1 [Example 69, 4-[2-(2-{[(S)-3-methyl-1-piperidyl]methyl}-4-cyclopropyl-7-oxo-1,6-dihydro-1,6-diaza-6-indenyl)-6-cyclopropyl-4-pyridyl]-3-[4-(difluoromethyl)-4H-1,2,4-triazol-3-yl]benzonitrile]
- IC50 (Cbl-b): < 100 nM
- EC50 (Jurkat cells): < 100 nM

Compound: Cn1cnnc1-c1cc(F)ccc1-c1cc(C2CC2)nc(-n2cc(C(F)(F)F)c3c(C#N)c[nH]c3c2=O)c1 [Example 135, 6-[6-cyclopropyl-4-[4-fluoro-2-(4-methyl-1,2,4-triazol-3-yl)phenyl]pyridin-2-yl]-7-oxo-4-(trifluoromethyl)-1H-pyrrolo[2,3-c]pyridine-3-carbonitrile]
- IC50 (Cbl-b): < 100 nM
- EC50 (Jurkat cells): < 100 nM

Compound: CO[C@H]1CCCN(Cc2cc3c(C4CC4)cn(-c4cc(-c5ccc(F)cc5-c5nccn5C)cc(C5CC5)n4)c(=O)c3[nH]2)C1 [Example 61, 2-{[(S)-3-methoxy-1-piperidyl]methyl}-4-cyclopropyl-6-{6-cyclopropyl-4-[4-fluoro-2-(1-methyl-2-imidazolyl)phenyl]-2-pyridyl}-1,6-dihydro-1,6-diaza-7-indenone]
- IC50 (Cbl-b): < 100 nM
- EC50 (Jurkat cells): 100 to 1000 nM

Compound: C[C@@H]1CN(Cc2cc3c(C#N)cn(-c4cc(-c5ccc(F)cc5-c5nncn5C)cc(C5CC5)n4)c(=O)c3[nH]2)CCO1 [Example 85, 6-[6-cyclopropyl-4-[4-fluoro-2-(4-methyl-1,2,4-triazol-3-yl)phenyl]pyridin-2-yl]-2-[[(2R)-2-methylmorpholin-4-yl]methyl]-7-oxo-1H-pyrrolo[2,3-c]pyridine-4-carbonitrile]
- IC50 (Cbl-b): < 100 nM
- EC50 (Jurkat cells): < 100 nM

Compound: Cc1cccc(C(O)c2cc3c(C#N)cn(-c4cc(-c5ccc(F)cc5-c5nncn5C)cc(C5CC5)n4)c(=O)c3[nH]2)n1 (centres unmarked) [Example 93, 6-{6-cyclopropyl-4-[4-fluoro-2-(4-methyl-4H-1,2,4-triazol-3-yl)phenyl]-2-pyridyl}-2-[hydroxy(6-methyl-2-pyridyl)methyl]-7-oxo-1,6-dihydro-1,6-diaza-4-indenecarbonitrile]
- IC50 (Cbl-b): < 100 nM
- EC50 (Jurkat cells): < 100 nM

Compound: CCOCCNCc1cc2ncn(-c3cc(-c4ccc(F)cc4-c4nncn4C)cc(C4CC4)n3)c(=O)c2[nH]1 [Example 31, 6-{6-cyclopropyl-4-[4-fluoro-2-(4-methyl-4H-1,2,4-triazol-3-yl)phenyl]-2-pyridyl}-2-[(2-ethoxyethylamino)methyl]-1,6-dihydro-1,4,6-triaza-7-indenone]
- IC50 (Cbl-b): < 100 nM
- EC50 (Jurkat cells): < 100 nM

Compound: COCCNCc1cc2ncn(-c3cc(-c4ccc(C#N)cc4-c4nc(C#N)cn4C)cc(C4CC4)n3)c(=O)c2[nH]1 [Example 116, 2-[5-cyano-2-[2-cyclopropyl-6-[6-[(2-methoxyethylamino)methyl]-4-oxo-5H-pyrrolo[3,2-d]pyrimidin-3-yl]pyridin-4-yl]phenyl]-1-methylimidazole-4-carbonitrilef]
- IC50 (Cbl-b): < 100 nM
- EC50 (Jurkat cells): < 100 nM

Compound: COCCNCc1cc2c(C(F)(F)F)cn(-c3cc(-c4ccc(F)cc4-n4cc(C)nn4)cc(C4CC4)n3)c(=O)c2[nH]1 [Example 131, 6-[6-cyclopropyl-4-[4-fluoro-2-(4-methyltriazol-1-yl)phenyl]pyridin-2-yl]-2-[(2-methoxyethylamino)methyl]-4-(trifluoromethyl)-1H-pyrrolo[2,3-c]pyridin-7-one]
- IC50 (Cbl-b): < 100 nM
- EC50 (Jurkat cells): < 100 nM

Compound: Cn1ccnc1-c1cc(F)ccc1-c1cc(C2CC2)nc(-n2cc(C3CC3)c3cc(CNC4(C)CCC4)[nH]c3c2=O)c1 [Example 55, 4-cyclopropyl-6-{6-cyclopropyl-4-[4-fluoro-2-(1-methyl-2-imidazolyl)phenyl]-2-pyridyl}-2-[(1-methylcyclobutylamino)methyl]-1,6-dihydro-1,6-diaza-7-indenone]
- IC50 (Cbl-b): < 100 nM
- EC50 (Jurkat cells): < 100 nM
